Test results taken from paper PMC10287695, “Non-covalent inhibitors of thioredoxin glutathione reductase with schistosomicidal activity in vivo” (Nature Communications, 2023).
Several values for one entry are separate records, joined by “and”; a condition that tells them apart may be missing. Equal values may be shown once.

What was measured:
[1] = test system: S. mansoni adult worms in mice; experiment: Schistosomicidal efficacy in infected mice, adult worms (42 d.p.i.); assay type: in vivo; conditions: for Egg burden, Treated, individual mice / Worm burden, Treated, individual mice: Adult worm, listed as 8VP70; for Egg burden, Treated, individual mice: eggs per 50 mg liver (Fig. 6); for decrease in egg burden / decrease in worm burden: mice
Experimental: (§1) To assess the efficacy of the compounds in vivo against juvenile and adult worms, five female Swiss-Webster mice were randomly assigned for the control and experiment groups using a randomization tool embedded in GraphPad Prism. Mice were percutaneously exposed for 1 h to about 80 S. mansoni cercariae. Three- and six-weeks post infection, respectively, for juvenile and adult worms, mice were treated depending on their weight with formulations of the compounds, while the control mice received only the vehicle. Compounds were formulated with 10% DMSO and 10% Tween-80, and vortexed to obtain a uniform mixture. The mixture was sonicated twice for 5 min each time using a digital ultrasonic cleaner heated to 50 °C. Sodium chloride 0.9% (80% normal saline) was added to the mixture, briefly vortexed and sonicated one more time using the same conditions as previous. The investigators were blinded by which group of mice received a treatment and the vehicle, as injection was done by technicians from the Comparative Research Center of Rush University Medical Center. Using a 26 G, 3/8 in intradermal bevel needle, each mouse was administered intraperitoneally with 100 µl of the formulated compound suspension at 50 mg/kg, 100 mg/kg and 200 mg/kg. Mice treated three weeks post infection for juvenile worms were euthanized three weeks post treatment and mice treated six weeks post infection were euthanized one week post treatment with 0.018 ml of Euthasol and 5.85 mg/ml heparin and perfused. The mesenteric and hepatic portal veins of the mice were carefully scanned under the microscope to extract any remaining S. mansoni adult worms and worm burdens were determined. Egg burden was determined by weighing 50 mg of liver tissue from each of treated and control mice. The liver tissues were digested with 5% KOH at 37 °C overnight and washed twice with PBS. The number of eggs per 50 mg of liver tissue was determined using a Keyence BZ-X800 microscope using the egg autofluorescence.

BmTrxR = BmTrxR (Brugia malayi, UniProt A0A1I9G0T9); experiment: B. malayi TrxR enzyme inhibition; assay type: biochemical
Experimental: Recombinant TGR, human TrxR1, B. malayi (Bm)TrxR and human GR proteins were expressed and purified as described[20],[69],[79]. The codon optimized sequence for P. falciparum (PfTrxR, https://www.ncbi.nlm.nih.gov/protein/CAA60574.1/) with an N-terminal 6-His tag was synthesized and inserted into pET15b (GenScript) and expressed in BL21 (DE3) cells and purified as described for human GR[20]. […] The reaction was started with addition of an equal volume of DTNB (6 mM) and NADPH (100 µM) and the increase in A412 during the first 3 min was recorded. […] Activity was initiated with the addition of 1 mM GSSG and 100 μM NADPH and initial rates of NADPH oxidation were monitored at 340 nm. The reactions were done in triplicate. The IC50 was calculated in GraphPad Prism.

TGR [2] = target: T1, TGR (Schistosoma mansoni, UniProt Q962Y6, X597U); experiment: Superoxide production (pyrogallol red); assay type: biochemical, S. mansoni; conditions: replicates
T1 construct: made in house
In short: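 TGR (500 nM) with 100 µM NADPH and 20–50 µM inhibitor was preincubated at room temperature for 30 min or 2 h. Samples were then added to 50 µM pyrogallol red with 300 µM NADPH, ± SOD, and A340/A540 were followed for 2 h.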

[3] = test system: S. mansoni juvenile worms in mice; experiment: Schistosomicidal efficacy in infected mice, juvenile worms (21 d.p.i.); assay type: in vivo
Experimental: as §1

TGR [4] = target: T1, TGR; experiment: NADPH consumption (oxidase activity); assay type: biochemical, S. mansoni; conditions: replicates
In short: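 Enzyme (500 nM) preincubated 30 min with compound (TRi-1, Stattic 50 µM; AF 20 µM) and 100 µM NADPH, desalted, then mixed with 100 µM NADPH; NADPH consumption read at 340 nm. Other compounds (50 µM) run without desalting, preincubation 30 min or 2 h.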

[5] = 1 x 100 mg/kg i.p. at 42 d.p.i.
[6] = 2 x 100 mg/kg i.p. (1: bid at 42 d.p.i.; 6: at 42 and 45 d.p.i.)
[7] = mice, 2 x 100 mg/kg at 21 d.p.i. (juvenile worms)

For Cc1oc(-c2ccc3c(c2)OCO3)nc1CN[C@@H]1C[C@@H]2C[C@H]([C@H]1C)C2(C)C [Compound 1], the “Egg burden, Treated, individual mice” value ([1]; 1 x 100 mg/kg) was 1302 and 1436 and 1582 and 1478 and 1434, the “Worm burden, Treated, individual mice” value ([1]; 1 x 100 mg/kg) was 15 and 16 and 12 and the “Egg burden, Treated, individual mice” value ([1]; 2 x 100 mg/kg) was 1572 and 1426 and 1565 and 1335 and 1329. The “Worm burden, Treated, individual mice” value ([1]; 2 x 100 mg/kg) was 12 and 10 and 9 and 8, the “decrease in egg burden” value [1, 5] was 40% and 40.5% and the “decrease in worm burden” value [1, 5] was 44% and 43.5%. For the same molecule, the “decrease in egg burden” value [1, 6] was 48% and 47.5%, the “decrease in worm burden” value [1, 6] was 54% and 53.6% and the IC50 (BmTrxR) was 37 ± 3.04 µM. For the same molecule, the inhibition at 10 µM (BmTrxR; BmTrxR, 10 µM compound, mean of 3 replicates, read-out: % inhibition) was 22.5%, the inhibition at 25 µM (BmTrxR; BmTrxR, 25 µM compound, mean of 3 replicates, read-out: % inhibition) was 40.6% and the inhibition at 50 µM (BmTrxR; BmTrxR, 50 µM compound, mean of 3 replicates, read-out: % inhibition) was 77.5%. The “Superoxide production, Pyrogallol red consumption monitored ΔA540” value (TGR [2]; condition not given) was -0.0003735 and -0.0003395 and -0.0002315, the “Superoxide production, Pyrogallol red consumption monitored ΔA540” value (TGR [2]; second of the two columns per substance (condition not given)) was -9.411e-5 and -9.234e-5 and -8.721e-5 and the “Egg burden, Treated, individual mice” value ([3]; 2 x 100 mg/kg, Juvenile worm, eggs per 50 mg liver (Fig. 6), listed as 8VP70) was 1567 and 1683 and 1698 and 1583 and 1670. The “Worm burden, Treated, individual mice” value ([3]; 2 x 100 mg/kg, Juvenile worm, listed as 8VP70) was 21 and 22 and 19 and 20, the “decrease in egg burden” value [3, 7] was 31% and the “decrease in worm burden” value [3, 7] was 28.2% and 28%. For the same molecule, the “NADPH consumption (rate/ΔOD340)” value (TGR [4]) was -0.000815 and -0.0007737 and -0.0007308.
